{
  "source": "PubChem BioAssay AID2060897",
  "about": "(Molecular Pharmacology Branch, DTP, NCI, 2025);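 note: spheroids exposed to agents for one week before readout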;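 for viability, T/C: percent viability relative to DMSO vehicle control wells as 100%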",
  "test_system": "966289-007-R4-J1-PDC complex spheroid viability",
  "test": "Anticancer human tumor 966289-007-R4-J1-PDC patient-derived pancreatic adenocarcinoma cell line growth inhibition [RAS]",
  "settings": "for IC50: curve of first compound; for viability, T/C: stronger effect = lower value",
  "summary_of_the_method": "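Tumour cells grown as complex spheroids with HUVEC endothelial cells and mesenchymal stem cells, treated with RAS pathway inhibitor combinations. Each agent spans half-log steps from near clinical Cmax, or 10 microM where Cmax is unknown.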",
  "data": [
    {"smiles": "C=CC(=O)N1CCN(c2nc(OCC3CCCN3C)nc3c(F)c(-c4nc(N)cc(C)c4C(F)(F)F)c(Cl)cc23)C(C)C1", "note": "(centres undefined) + C#Cc1c(F)ccc2cc(O)cc(-c3ncc4c(N5CC6CCC(C5)N6)nc(OCC56CCCN5CC(F)C6)nc4c3F)c12", "values": [
      {"measurement": "IC50", "setting": "second compound 0.0316 µM", "result": "> 1000", "unit": "nM"},
      {"measurement": "IC50", "setting": "second compound 0.1 µM", "result": "> 1000", "unit": "nM"},
      {"measurement": "IC50", "setting": "second compound 0.316 µM", "result": "> 1000", "unit": "nM"},
      {"measurement": "IC50", "setting": "second compound 1 µM", "result": "> 1000", "unit": "nM"},
      {"measurement": "IC50", "setting": "second compound 3.16 µM", "result": "> 1000", "unit": "nM"},
      {"measurement": "IC50", "setting": "second compound 10 µM", "result": "> 1000", "unit": "nM"},
      {"measurement": "viability, T/C", "setting": "second compound 0.0316 µM, first compound 0.00316 µM", "result": 106, "unit": "%"},
      {"measurement": "viability, T/C", "setting": "second compound 0.0316 µM, first compound 0.01 µM", "result": 99.5, "unit": "%"},
      {"measurement": "viability, T/C", "setting": "second compound 0.0316 µM, first compound 0.0316 µM", "result": 88.7, "unit": "%"},
      {"measurement": "viability, T/C", "setting": "second compound 0.0316 µM, first compound 0.1 µM", "result": 98.2, "unit": "%"},
      {"measurement": "viability, T/C", "setting": "second compound 0.0316 µM, first compound 0.316 µM", "result": 108, "unit": "%"},
      {"measurement": "viability, T/C", "setting": "second compound 0.0316 µM, first compound 1 µM", "result": 91.5, "unit": "%"},
      {"measurement": "viability, T/C", "setting": "second compound 0.1 µM, first compound 0.00316 µM", "result": 108, "unit": "%"},
      {"measurement": "viability, T/C", "setting": "second compound 0.1 µM, first compound 0.01 µM", "result": 107, "unit": "%"},
      {"measurement": "viability, T/C", "setting": "second compound 0.1 µM, first compound 0.0316 µM", "result": 91.1, "unit": "%"},
      {"measurement": "viability, T/C", "setting": "second compound 0.1 µM, first compound 0.1 µM", "result": 95.9, "unit": "%"},
      {"measurement": "viability, T/C", "setting": "second compound 0.1 µM, first compound 0.316 µM", "result": 83.8, "unit": "%"},
      {"measurement": "viability, T/C", "setting": "second compound 0.1 µM, first compound 1 µM", "result": 83.3, "unit": "%"},
      {"measurement": "viability, T/C", "setting": "second compound 0.316 µM, first compound 0.00316 µM", "result": 105, "unit": "%"},
      {"measurement": "viability, T/C", "setting": "second compound 0.316 µM, first compound 0.01 µM", "result": 99.5, "unit": "%"},
      {"measurement": "viability, T/C", "setting": "second compound 0.316 µM, first compound 0.0316 µM", "result": 102, "unit": "%"},
      {"measurement": "viability, T/C", "setting": "second compound 0.316 µM, first compound 0.1 µM", "result": 99.7, "unit": "%"},
      {"measurement": "viability, T/C", "setting": "second compound 0.316 µM, first compound 0.316 µM", "result": 97, "unit": "%"},
      {"measurement": "viability, T/C", "setting": "second compound 0.316 µM, first compound 1 µM", "result": 80.7, "unit": "%"},
      {"measurement": "viability, T/C", "setting": "second compound 1 µM, first compound 0.00316 µM", "result": 97, "unit": "%"},
      {"measurement": "viability, T/C", "setting": "second compound 1 µM, first compound 0.01 µM", "result": 111, "unit": "%"},
      {"measurement": "viability, T/C", "setting": "second compound 1 µM, first compound 0.0316 µM", "result": 117, "unit": "%"},
      {"measurement": "viability, T/C", "setting": "second compound 1 µM, first compound 0.1 µM", "result": 103, "unit": "%"},
      {"measurement": "viability, T/C", "setting": "second compound 1 µM, first compound 0.316 µM", "result": 92.5, "unit": "%"},
      {"measurement": "viability, T/C", "setting": "second compound 1 µM, first compound 1 µM", "result": 96.8, "unit": "%"},
      {"measurement": "viability, T/C", "setting": "second compound 3.16 µM, first compound 0.00316 µM", "result": 96.9, "unit": "%"},
      {"measurement": "viability, T/C", "setting": "second compound 3.16 µM, first compound 0.01 µM", "result": 107, "unit": "%"},
      {"measurement": "viability, T/C", "setting": "second compound 3.16 µM, first compound 0.0316 µM", "result": 113, "unit": "%"},
      {"measurement": "viability, T/C", "setting": "second compound 3.16 µM, first compound 0.1 µM", "result": 102, "unit": "%"},
      {"measurement": "viability, T/C", "setting": "second compound 3.16 µM, first compound 0.316 µM", "result": 110, "unit": "%"},
      {"measurement": "viability, T/C", "setting": "second compound 3.16 µM, first compound 1 µM", "result": 92.7, "unit": "%"},
      {"measurement": "viability, T/C", "setting": "second compound 10 µM, first compound 0.00316 µM", "result": 118, "unit": "%"},
      {"measurement": "viability, T/C", "setting": "second compound 10 µM, first compound 0.01 µM", "result": 82.8, "unit": "%"},
      {"measurement": "viability, T/C", "setting": "second compound 10 µM, first compound 0.0316 µM", "result": 91.6, "unit": "%"},
      {"measurement": "viability, T/C", "setting": "second compound 10 µM, first compound 0.1 µM", "result": 96.4, "unit": "%"},
      {"measurement": "viability, T/C", "setting": "second compound 10 µM, first compound 0.316 µM", "result": 89.9, "unit": "%"},
      {"measurement": "viability, T/C", "setting": "second compound 10 µM, first compound 1 µM", "result": 92.2, "unit": "%"}
    ]},
    {"smiles": "CC1(C)CCC(Nc2ncc(C(F)(F)F)c(-c3c[nH]c4c(P(C)(C)=O)c(C#N)ccc34)n2)CN1", "note": "(centres undefined) + C#Cc1c(F)ccc2cc(O)cc(-c3ncc4c(N5CC6CCC(C5)N6)nc(OCC56CCCN5CC(F)C6)nc4c3F)c12", "values": [
      {"measurement": "IC50", "setting": "second compound 0.0316 µM", "result": 17, "unit": "nM"},
      {"measurement": "IC50", "setting": "second compound 0.1 µM", "result": 15.6, "unit": "nM"},
      {"measurement": "IC50", "setting": "second compound 0.316 µM", "result": 18.3, "unit": "nM"},
      {"measurement": "IC50", "setting": "second compound 1 µM", "result": 19.6, "unit": "nM"},
      {"measurement": "IC50", "setting": "second compound 3.16 µM", "result": 19.1, "unit": "nM"},
      {"measurement": "IC50", "setting": "second compound 10 µM", "result": 18.6, "unit": "nM"},
      {"measurement": "viability, T/C", "setting": "second compound 0.0316 µM, first compound 0.000949 µM", "result": 113, "unit": "%"},
      {"measurement": "viability, T/C", "setting": "second compound 0.0316 µM, first compound 0.003 µM", "result": 107, "unit": "%"},
      {"measurement": "viability, T/C", "setting": "second compound 0.0316 µM, first compound 0.00949 µM", "result": 80.6, "unit": "%"},
      {"measurement": "viability, T/C", "setting": "second compound 0.0316 µM, first compound 0.03 µM", "result": 19.9, "unit": "%"},
      {"measurement": "viability, T/C", "setting": "second compound 0.0316 µM, first compound 0.0949 µM", "result": 15.4, "unit": "%"},
      {"measurement": "viability, T/C", "setting": "second compound 0.0316 µM, first compound 0.3 µM", "result": 11.9, "unit": "%"},
      {"measurement": "viability, T/C", "setting": "second compound 0.1 µM, first compound 0.000949 µM", "result": 107, "unit": "%"},
      {"measurement": "viability, T/C", "setting": "second compound 0.1 µM, first compound 0.003 µM", "result": 131, "unit": "%"},
      {"measurement": "viability, T/C", "setting": "second compound 0.1 µM, first compound 0.00949 µM", "result": 76.4, "unit": "%"},
      {"measurement": "viability, T/C", "setting": "second compound 0.1 µM, first compound 0.03 µM", "result": 20.8, "unit": "%"},
      {"measurement": "viability, T/C", "setting": "second compound 0.1 µM, first compound 0.0949 µM", "result": 13.4, "unit": "%"},
      {"measurement": "viability, T/C", "setting": "second compound 0.1 µM, first compound 0.3 µM", "result": 11.3, "unit": "%"},
      {"measurement": "viability, T/C", "setting": "second compound 0.316 µM, first compound 0.000949 µM", "result": 102, "unit": "%"},
      {"measurement": "viability, T/C", "setting": "second compound 0.316 µM, first compound 0.003 µM", "result": 134, "unit": "%"},
      {"measurement": "viability, T/C", "setting": "second compound 0.316 µM, first compound 0.00949 µM", "result": 90.3, "unit": "%"},
      {"measurement": "viability, T/C", "setting": "second compound 0.316 µM, first compound 0.03 µM", "result": 20.8, "unit": "%"},
      {"measurement": "viability, T/C", "setting": "second compound 0.316 µM, first compound 0.0949 µM", "result": 13.9, "unit": "%"},
      {"measurement": "viability, T/C", "setting": "second compound 0.316 µM, first compound 0.3 µM", "result": 12.9, "unit": "%"},
      {"measurement": "viability, T/C", "setting": "second compound 1 µM, first compound 0.000949 µM", "result": 106, "unit": "%"},
      {"measurement": "viability, T/C", "setting": "second compound 1 µM, first compound 0.003 µM", "result": 131, "unit": "%"},
      {"measurement": "viability, T/C", "setting": "second compound 1 µM, first compound 0.00949 µM", "result": 89.3, "unit": "%"},
      {"measurement": "viability, T/C", "setting": "second compound 1 µM, first compound 0.03 µM", "result": 27.3, "unit": "%"},
      {"measurement": "viability, T/C", "setting": "second compound 1 µM, first compound 0.0949 µM", "result": 13.8, "unit": "%"},
      {"measurement": "viability, T/C", "setting": "second compound 1 µM, first compound 0.3 µM", "result": 10.3, "unit": "%"},
      {"measurement": "viability, T/C", "setting": "second compound 3.16 µM, first compound 0.000949 µM", "result": 115, "unit": "%"},
      {"measurement": "viability, T/C", "setting": "second compound 3.16 µM, first compound 0.003 µM", "result": 135, "unit": "%"},
      {"measurement": "viability, T/C", "setting": "second compound 3.16 µM, first compound 0.00949 µM", "result": 91.7, "unit": "%"},
      {"measurement": "viability, T/C", "setting": "second compound 3.16 µM, first compound 0.03 µM", "result": 24.1, "unit": "%"},
      {"measurement": "viability, T/C", "setting": "second compound 3.16 µM, first compound 0.0949 µM", "result": 12.2, "unit": "%"},
      {"measurement": "viability, T/C", "setting": "second compound 3.16 µM, first compound 0.3 µM", "result": 12.1, "unit": "%"},
      {"measurement": "viability, T/C", "setting": "second compound 10 µM, first compound 0.000949 µM", "result": 101, "unit": "%"},
      {"measurement": "viability, T/C", "setting": "second compound 10 µM, first compound 0.003 µM", "result": 113, "unit": "%"},
      {"measurement": "viability, T/C", "setting": "second compound 10 µM, first compound 0.00949 µM", "result": 89.8, "unit": "%"},
      {"measurement": "viability, T/C", "setting": "second compound 10 µM, first compound 0.03 µM", "result": 21.9, "unit": "%"},
      {"measurement": "viability, T/C", "setting": "second compound 10 µM, first compound 0.0949 µM", "result": 15.1, "unit": "%"},
      {"measurement": "viability, T/C", "setting": "second compound 10 µM, first compound 0.3 µM", "result": 9.97, "unit": "%"}
    ]}
  ]
}
